Source: patent US10785978B2, “Control and repellency of biting flies, house flies, ticks, ants, fleas, biting midges, cockroaches, spiders and stink bugs” (priority 2012, dated 2020)

Columns and labels:
Assay type in all cases: in vivo
[1] = tested on: Brown Dog Ticks, Rhipicephalus sanguineus
From the text: The following protocol was employed to test compounds of this invention for toxicity (mortality) against ticks. There were 5 replicates of 5 dog ticks for each treatment. […] Filter paper strips were laid on a sheet of aluminum foil and enough of each of the test sample was applied to thoroughly saturate the paper. The paper was then rolled and placed inside a glass shell vial as to line the sides of the vial. A small paper disc, also saturated with the test sample, was then placed at the bottom of the vial. Brown Dog Ticks, Rhipicephalus sanguineus, were then introduced into the vials which were covered with aluminum foil, the inside of which was painted with some of the test sample. The ticks remained in the vials, constantly exposed to the test samples, for the duration of the test. A small hole was poked through the foil for ventilation. Each control replicate was subjected to the same procedures outlined above, except that they were not treated. The controls were placed in the same area as the test replicates for the duration of the test. Mortality observations were made at 24 hours. Ticks were classified as alive (able to move normally), moribund (those classified as moribund will show some movement, but will not be able to crawl in a coordinated manner, or will be unable to right themselves if placed on their backs), or dead (no movement after physical stimuli). All dead ticks were confirmed by probing or agitation to make sure that they are unable to move; any that show movement visible to the naked eye were recorded as moribund. At 24 hours the tick mortality was 0% for the control, 100% for γ-dodecalactone, 100% for methyl apritone and 76% for methyl dihydrojasmonate.

stable flies = assay: Stable fly probing on treated warmed blood-filled membranes; details: for Probes at 7% test compound: 7% in isopropyl alcohol on membrane; for Probes at 7% test compound / Probes at 15% test compound: twenty minutes, percent of control probes taken as 100%; for Probes at 15% test compound: 15% in isopropyl alcohol on membrane
Description: Five replicates of 100 mixed-sex stable flies each were placed in screened cages. The cages were placed in such a way that the stable flies had access to five warmed, blood-filled membrane walls. The membranes were treated with methyl dihydrojasmonate, gamma-dodecalactone, methyl apritone, or DEET® all at 7% and at 15% in isopropyl alcohol, or isopropyl alcohol as a control. There were five replicates tested with a positional rotation of the repellent at each replicate. Fresh batches of stable flies were used for each replicate. Thus each test sample was tested on each of the five wells, which allowed any positional bias to be eliminated. The number of stable flies probing each well was recorded at two minute intervals for twenty minutes. The total number of probes on each well were tallied at the end of the twenty minute observation period and the average percentage repellency was calculated for each compound. An analysis of variance was conducted to compare the average number of probes on each treatment membrane. The number of probes for the control was taken as the 100% baseline and the percentage for the test compounds is the percent for the number of probes for the test compound compared to the number of control probes.

Brown Dog Ticks = assay: Second repellent assay against Brown Dog Ticks; details: 7% in isopropyl alcohol
Description: Also, a second repellent assay was used to evaluate six test samples against Brown Dog Ticks. Five replicates of five ticks were given the opportunity to quest onto a vertical strip of untreated filter paper and then allowed to move upward toward a second vertical strip of filter paper treated with one of the six candidate repellents or DEET®. In the control situation, the second strip was treated with isopropanol. They were then observed for directional or behavioral changes caused in response to contact with the repellent. Ticks were recorded as either repelled or not repelled. Compounds were diluted in isopropyl alcohol. The percentages of ticks repelled are shown below in Table 6.

sand flies P. papatasi = assay: Sand fly bite test on treated human skin with K&D module; details: for percent biting, Treatment level 5%: 5% compound in isopropyl alcohol on human skin; for percent biting, Treatment level 5% / percent biting, Treatment level-10%: five minute exposure, percent of control biting taken as 100%; for percent biting, Treatment level-10%: 10% compound in isopropyl alcohol on human skin; for sand flies repelled: at 5%
Description: Control against sand flies was determined by the following protocol as generally described in J. Med. Entomol. 43 (6), 1248-1252 (2006). Volunteers wearing short pants were seated. Using a skin-marking template and a washable-ink marker, skin areas represented by 3- by 4-cm floor opening of six cells of a K&D module were outlined on the outer, top and inner thigh position of each leg of the volunteers. The six treated cell rectangles each represented a random block, and each volunteer had three blocks on each of two thighs. All treatments against the sand flies P. papatasi, were pipetted onto a 4- by 5-cm rectangular area (so the area of skin covered by a treatment exceeded the template marks by 0.5 cm in every direction) of the subjects' skin with 55 ul of isopropyl alcohol/treatment containing 10% or 5% compound/ul isopropyl alcohol. Treating a slightly larger area ensured that the areas beneath each K&D module contained only treated skin. Skin treated with isopropyl alcohol alone served as control. In all tests adjacent cells of the K&D module were supplied with ten sand flies. The sand fly charged K&D module was positioned over the treated skin areas and the trap doors of the K&D module above the areas were opened. After a five minute skin exposure the trap doors were closed. The number of sand fly bites was recorded for each cell. The percent biting is the percent compared to the biting for the control which was taken as 100%.

German cockroaches = assay: German cockroach repellency, choice of food stations in arena; details: 50% in acetone; at 4 hours
Description: The efficacy of compounds of this invention to control or repel German cockroaches was illustrated using the following protocol. One food pellet each was placed on a paper square (station) treated with one of the repellent materials. Materials were diluted to 50% in acetone and a straight acetone station was also used. Both stations were placed on the same side of the arena. Cockroaches were starved for 2 days and then released into the arena. They were given a choice to feed on either food pellet. A control arena with an acetone treated station and an untreated station was also used. The distribution of cockroaches within the arena was recorded at 30 minute intervals over 4 hours. Repellency at 4 hours was calculated by the number of cockroaches on the untreated station vs. the total number of cockroaches on the stations.

house flies = assay: House fly repellency on treated filter paper food trays in cages; details: over 6 hours
Description: The bottom of each cage was lined with brown craft paper and divided into 4 equal quadrants. Each quadrant housed a makeshift filter paper food tray. Two of the four filter papers were treated with repellent and two treated with isopropanol. Control cages contained filter papers that were treated with 4 filter papers of isopropanol only. The number of flies resting on filter paper per quadrant was recorded every 30 minutes for a total of 6 hours. Cages were rotated to eliminate positional bias. […] Each of the test samples were diluted in isopropyl alcohol.

Black Widow spiders = assay: Black Widow spider choice test in half-treated tube shelters; details: 5% in isopropanol; location after 24 hours
Description: Control against Black Widow spiders was determined using the following protocol. One test container containing two card stock tube shelters, one half treated with a test sample and the other half treated with isopropanol was prepared. A spider was introduced in the center of the tube. The spider was then given a choice to move to one end of the shelters. The following day, its location is recorded and compared to the results from a shelter containing untreated half-shelters.
On the day of the test one of the two shelters was sprayed with the test sample solution using a 2 oz pump spray bottle. Only the surfaces that the spider will most likely contact were treated. Therefore, only the inside of one of the shelter tubes, including the end disc (spiders will not be able to access the outside part of the shelter) were sprayed. The total amount of product was weighed and recorded. The treated surface was allowed to dry for a minimum of ½ hour, or until solvent could not be detected by smell. At this time the shelter tubes were assembled.
Card stock paper tube shelters were constructed from 2 half-letter sized sheets (5½″×8½″) of paper, rolled and taped together to form a short tube. One end of each was covered with a circle of card stock paper, while the other end was later taped to the open end of the other half sheet, forming one long tube. […] The solvent-treated half was labeled with a “C” on the inner and outer walls with a pencil or a pen with solvent resistant ink. Prior to forming the final tube shelter, a semi-circular hole was cut into one of the margins of each sheet such that, once the two tubes are taped together, the holes correspond to the top and at the junction of the tubes for introduction of the spiders.
Twenty-five arenas were prepared in this manner for each test sample. There were five replicates of five spiders. Twenty-five additional control arenas were also prepared. They were prepared the same way, except that areas to be sprayed were sprayed with isopropanol only.
Replicates of five spiders were selected for each test formulation and for the control. The specimens were visually examined for overall physical condition. […] The spiders were transferred directly into the holding vials using flexible forceps or with a little coaxing with an artist brush. Because of their cannibalistic tendencies, each vial contained only one spider. There they were held until the time for testing.
At the test start the spiders were placed directly in the middle, through the opening at the top of the shelter tube, and the opening covered, with only one spider per arena. […] They were left alone for 24 hours, after which time their location within the arena was recorded. Spiders present inside the shelter treated with the test repellent were considered tolerant.

[2] = tested on: Brown Dog Ticks, Rhipicephalus sanguineus; assay: Brown Dog tick repellency on vertical filter paper strips
Description: Control against Brown Dog ticks was determined in the following protocol. Strips of filter paper, 1″ by 3″, were placed on a sheet of aluminum foil treated with 1 ml each of the test samples and allowed to dry. The end of each treated strip was stapled to an untreated filter paper strip of the same dimensions. The stapled strips were suspended in a vertical position above a tray, with the treated half attached to a horizontal glass rod by a metal clip. The untreated half was lowered when the strip is vertically positioned. Brown Dog Ticks, Rhipicephalus sanguineus, mixed sexes, were purchased from a supplier. Five replicates of five ticks for each treatment regimen plus five additional replicates for the control were employed. Ticks shipped to the test site were given at least one day to acclimate to “shipping stress” before they are used for testing. Those tick specimens which appeared sluggish or moribund were not used. Suitable ticks were removed from their containers and allowed to quest on the free end of the test strip. Once present on the strip they were watched as they crawled up the strip until they contacted the treated paper. If the tick, once in contact with the treated zone, either turned around, stopped without proceeding further, or dropped off, the tick is classified as repelled. If it continued to crawl onto the treated strip, even after it stopped briefly, that tick was classified as not repelled. A maximum observation time of 1 minute per replicate was allowed for ticks to respond after reaching the treated area, but during the test, if more time was needed, the maximum observation time may have been adjusted at the discretion of the study coordinator. At the end of the observation time, the number of ticks repelled was recorded. Tick behavior was recorded when applicable, such as whether increased number of affected or repelled ticks occurred in successive replicates over time. After the completion of each treatment parameter, the testing chamber was ventilated for five minutes by turning on the exhaust fan and opening the door leading into the chamber. Ticks were used only once. Average number of ticks displaying each behavior category were calculated and compared to the control replicates.

[3] = tested on: brown marmorated stink bugs (BMSB); assay: Brown marmorated stink bug repellency, treated vs. untreated filter paper arena
Description: The two semi-circle filter papers were aligned together to completely cover the bottom of the test arena. Control arenas were also set up in a similar fashion except both were treated with acetone. Five replicates of 5 BMSB were then introduced into both the treated and control arenas. By releasing them in the center of the arena, the BMSB were presented with a choice of treated vs. untreated substrate (or untreated vs. untreated in the control arenas). The repellency of the BMSB was recorded at 24 hours post-treatment.

Pharaoh ants = assay: Pharaoh ant behaviour at treated-untreated interface on poster board; details: 50% in acetone; 5 minutes after release
Description: Pharaoh ants were tested using the following protocol. The side of a 17″×23″ rectangular sheet of poster board was sprayed with the test sample or acetone, except for a region within a 6″ circle. The treated poster board was allowed to dry. Five worker ants were placed in the center of the 6″ untreated circle and allowed to wander outside the circle onto the treated surface. The behavior of the ants at the treated-untreated interface was recorded for 5 minutes after release. Test compounds were diluted in acetone.

CCCCCC1CC(C)=CC(O)C1 (stereo not shown) [3-Methyl-5-Pentyl-2-cyclohexenol, 3-methyl-5-pentyl-2-cyclohexenol]
morbidity at 24 hr ([1]; 10%, constant exposure 24 hours): 100% | 24 hr mortality (%) ([1]; in vivo): 12%

CCN(CC)C(=O)c1cccc(C)c1 [DEET ®, N,N-Diethyl-m-toluamide, reference compound]
Probes at 7% test compound (stable flies): 45.9% | Probes at 15% test compound (stable flies): 16.2% | Mean % repelled (Brown Dog Ticks): 96%

CCCCCC1C(O)CCC1CC(=O)OC (stereo not shown) [Methyl dihydrojasmolate]
percent biting, Treatment level 5% (sand flies P. papatasi): 0% | percent biting, Treatment level-10% (sand flies P. papatasi): 0% | sand flies repelled (sand flies P. papatasi): 100%

CCCCCC1C(=O)CCC1CC(=O)OCC=C(C)C (stereo not shown) [Prenyl dihydrojasmonate]
% Repellency 4 hr (German cockroaches): 87.5%

CCCCCCCCCC1CCCC(=O)O1 (stereo not shown) [delta Tetradecalactone]
Overall % Repellency (house flies; 5% in isopropyl alcohol): 76%

CCCCCCCCCCCC1CCC(=O)O1 (stereo not shown) [gamma Pentadecalactone]
Overall % Repellency (house flies; 7.5% in isopropyl alcohol): 87% | % Repellency (Black Widow spiders): 75.0%

CCCCCCCCCC1CCC(=O)O1 (stereo not shown) [gamma Tridecalactone, gamma-tridecalactone]
Overall % Repellency (house flies; 5% in isopropyl alcohol): 80% | Overall % Repellency (house flies; 7.5% in isopropyl alcohol): 94% | Mean % repelled ([2]; 7.5% in isopropyl alcohol): 100% | % Repellency (Black Widow spiders): 75.0% | % Repellency at 24 hours ([3]; 5% in isopropyl alcohol): 70%

CCCCCCCCC1CCC(=O)O1 (stereo not shown) [gamma-Dodecalactone, gamma-dodecalactone]
Probes at 7% test compound (stable flies): 6.2% | Probes at 15% test compound (stable flies): 3.6% | repellency compared with DEET (stable flies; at the same concentrations (7% and 15%)): repelled better than DEET® | Overall % Repellency (house flies; 7.5% in isopropyl alcohol): 100% | Mean % repelled ([2]; Neat): 100% | ticks repelled ([2]; concentration not given): 100% | 24 hr mortality (%) ([1]; in vivo): 100% | tick mortality at 24 hours ([1]; in vivo): 100% | % crossed without stopping (Pharaoh ants): 82% | % slowed, but crossed (Pharaoh ants): 8% | % stopped at interface (Pharaoh ants): 10% | % Repellency 4 hr (German cockroaches): 96.6% | % Repellency at 24 hours ([3]; 10% in isopropyl alcohol): 100%

Farnesyl cyclopentanone
% Repellency 4 hr (German cockroaches): 100%

Methyl apritol
percent biting, Treatment level 5% (sand flies P. papatasi): 12.5% | percent biting, Treatment level-10% (sand flies P. papatasi): 0% | sand flies repelled (sand flies P. papatasi): 87.5%
